In brackets after ≈: the same amount, converted by molar mass. Like-named read-outs stand apart in the source and are kept apart here. Bridge positions count the residues as written; N and C are the ends. Square brackets hold non-standard residues; d marks the D form. Peptide text beside a SMILES is read from it. * marks the point of attachment. d(aThr) = C[C@@H](O)[C@@H](N)C(=O)O; Palmitoyl = CCCCCCCCCCCCCCCC(=O)*; dPip = O=C(O)[C@H]1CCCCN1; hSer = N[C@@H](CCO)C(=O)O; Dap = NC[C@H](N)C(=O)O
What was measured:
Bacillus subtilis [1] = experiment: Growth inhibitory zone assay; format: cell-based; conditions: mixed with B1 at 50 mM each, 12 hours, room temperature
Description: The antimicrobial activities of our peptide (B1) in combination with various boron species were tested by the growth inhibitory zone assay (FIG. 26). B1 was mixed with various boron species at 50 mM each (final concentration). These mixtures were then spotted on a lawn of Bacillus subtilis. After 12 hours of incubation at room temperature, combinations effective at inhibiting bacterial growth would appear as a circular zone.

Bacillus subtilis [2] = conditions: for antimicrobial activity: absence of PBA; for PBA dependence of bacterial growth suppression: with vs without PBA; for MIC: no PBA
Description: We then investigated the boron dependence of B1 by determining the MIC of B1 across […] of PBA concentrations (0.5 μg/mL to 100 μg/mL, FIG. 4B).

HEK293T cells = experiment: cells; format: cell-based; conditions: 24 h
Description: HEK293T cells were cultured in Dulbecco's Modified Eagle's Medium supplemented with 10% fetal bovine serum and 1% Antibiotic antimycotic at 37° C. under humidified atmosphere and 5% CO2. Cytotoxicity assays began by seeding 2×10^4 HEK293T cells per well in a 96-well plate. Cells were given 20 to 24 h to adhere, washed with fresh medium, and then a 2-fold dilution series of the compounds of interest were added. The highest concentration tested for S1, B1, and PBA were 128, 128, and 1,280 μg/mL, respectively; for the B1-plus-PBA series, the PBA concentration was held constant at 5 μg/mL while the B1 concentration varied. After incubation for 24 h, the medium was discarded, the cells rinsed with PBS buffer, and 100 μL of 0.5 mg/mL MTT in […] was added to each well. The plate was incubated for 2 h before discarding the MTT solution. The cells were wash with PBS, and then the resulting purple crystals were dissolved by DMSO (100 μL per well). Absorbance at 570 nm for each well was recorded, and cell viability (%) was calculated as the ratio of the absorbance the compound-treated well vs. the no-compound well. This assay was performed in triplicate.

B. cereus = experiment: Activity spectrum MIC; format: cell-based; conditions: PBA 50 μg/mL
E. faecalis = experiment: Activity spectrum MIC; format: cell-based; conditions: PBA 50 μg/mL
Rhodococcus hoagii = experiment: Activity spectrum MIC; format: cell-based; conditions: PBA 50 μg/mL
Staphylococcus species = experiment: Activity spectrum MIC; format: cell-based; conditions: PBA 50 μg/mL
Streptococcus species = experiment: Activity spectrum MIC; format: cell-based; conditions: PBA 50 μg/mL
Escherichia coli = experiment: Activity spectrum MIC; format: cell-based; conditions: PBA 50 μg/mL
Pseudomonas aeruginosa = experiment: Activity spectrum MIC; format: cell-based; conditions: PBA 50 μg/mL
[3] = tested on: methicillin-resistant strains (MRSA); experiment: Activity spectrum MIC; format: cell-based, Staphylococcus; conditions: PBA 50 μg/mL
[4] = tested on: vancomycin-resistant strains (VRE); experiment: Activity spectrum MIC; format: cell-based, Enterococcus; conditions: PBA 50 μg/mL
[5] = 31P NMR monitoring of complex formation; format: binding; conditions: B1/PBA/C10P 1:2:1, 10% D2O
Description: NMR experiments were conducted on a Bruker AVIII 400 (400 MHZ) spectrometer. Chemical shifts (δ) are relative to tetramethylsilane, boric acid, and phosphoric acid for ^1H, ^11B, and ^31P spectra, respectively. The ^11B spectrum of PBA (20 μL, 10.0 mg/mL) in 10% D2O (550 μL) was first obtained. Next, C10P (17 μL, 16 mg/mL) was added directly into the NMR tube, and both the ^11B and ^31P spectra were obtained. B1 (1.2 mg, powder) was then added, followed spectra acquisition. Finally, CaCl2) was added to the solution in the NMR tube, so that the final calcium concentration is ˜5 mM. Note that the ^31P spectrum of C10P alone was collected separately.
Mass spectrometry (MS) and nuclear magnetic resonance (NMR) offered additional evidence of complex formation at the molecular level. High-resolution native electrospray ionization mass spectrometry (HR-NESI-MS) is commonly used to study noncovalent interactions.^[15] Using HR-NESI-MS, we observed the expected m/z for binary, ternary, and quaternary complexes at both the positive and negative modes (FIGS. 5B and 5C, FIGS. 15-18 and FIGS. 23-24). We then performed phosphorous (^31P) and boron (^11B) NMR to monitor the complex formation process. […] When B1 was added to the C10P/PBA mixture, no phosphorous signal could be detected at δ 3 or greater, and two new peaks at δ 0.4 and 0.0 appeared. […]

**Q.** For `O=Cc1ccccc1B(O)O` [2-formylphenylboronic acid], which “growth inhibitory zone, boron species in combination with B1” value (shortened to “growth inhibitory zone, boron species”) (Bacillus subtilis [1]) is on record?
**A.** effective

**Q.** With `OB(O)c1cc(C(F)(F)F)cc(C(F)(F)F)c1` [3,5-(bis(trifluoromethyl)phenyl) boronic acid] as the compound, how does the “growth inhibitory zone, boron species” value (Bacillus subtilis [1]) read?
**A.** effective

**Q.** For `Cc1cc(C)cc(B(O)O)c1` [3,5-dimethylphenylboronic acid], which “growth inhibitory zone, boron species” value (Bacillus subtilis [1]) is on record?
**A.** effective

**Q.** With `OB(O)c1cccc(O)c1` [3-hydroxylphenylboronic acid] as the compound, how does the “growth inhibitory zone, boron species” value (Bacillus subtilis [1]) read?
**A.** effective

**Q.** With `OB(O)c1cccnc1` [3-pyridylboronic acid] as the compound, how does the “growth inhibitory zone, boron species” value (Bacillus subtilis [1]) read?
**A.** effective

**Q.** With `CSc1ccc(B(O)O)cc1` [4-(methylthio) phenylboronic acid] as the compound, how does the “growth inhibitory zone, boron species” value (Bacillus subtilis [1]) read?
**A.** effective

**Q.** For `Nc1ccc(B(O)O)cc1` [4-aminophenylboronic acid], which “growth inhibitory zone, boron species” value (Bacillus subtilis [1]) is on record?
**A.** effective

**Q.** With `N#Cc1ccc(B(O)O)cc1` [4-cyanophenylboronic acid] as the compound, how does the “growth inhibitory zone, boron species” value (Bacillus subtilis [1]) read?
**A.** effective

**Q.** For `OB(O)c1ccc(F)cc1` [4-fluorophenylboronic acid], which “growth inhibitory zone, boron species” value (Bacillus subtilis [1]) is on record?
**A.** effective

**Q.** For `OB(O)c1ccc(O)cc1` [4-hydroxylphenylboronic acid], which “growth inhibitory zone, boron species” value (Bacillus subtilis [1]) is on record?
**A.** effective

**Q.** Which “growth inhibitory zone, boron species” value (Bacillus subtilis [1]) does the source give for `COC(=O)c1ccc(B(O)O)cc1` [4-methoxycarbonyl phenylboronic acid] here?
**A.** effective

**Q.** Which “growth inhibitory zone, boron species” value (Bacillus subtilis [1]) does the source give for `COc1ccc(B(O)O)cc1` [4-methoxyphenylboronic acid] here?
**A.** effective

**Q.** For `OB(O)c1ccncc1` [4-pyridylboronic acid], which “growth inhibitory zone, boron species” value (Bacillus subtilis [1]) is on record?
**A.** effective

**Q.** For `Cc1ccc(B(O)O)cc1` [4-tolylboronic acid], which “growth inhibitory zone, boron species” value (Bacillus subtilis [1]) is on record?
**A.** effective

**Q.** Which “dependence of antibacterial activity on calcium” value (Bacillus subtilis [2]; LB, PBA 50 μg/mL (0.41 mM), FIG. 4A) does the source give for `CCCCCCCCCCCCCCCC(=O)N[C@@H](CO)C(=O)N[C@H]1CNC(=O)[C@@H]2CCCN2C(=O)[C@H]([C@@H](C)CC)NC(=O)[C@@H]([C@@H](C)O)NC(=O)CNC(=O)[C@H](CO)NC(=O)CNC(=O)[C@H](CC(=O)O)NC(=O)CNC(=O)[C@H]2CCCCN2C1=O` [B1] (Palmitoyl-S[Dap][dPip]GDGSG[d(aThr)]IP; lactam 2-C) here?
**A.** completely independent of calcium

**Q.** What about the antimicrobial activity (Bacillus subtilis [2]; no calcium supplements) of the same compound?
**A.** none of them were active

**Q.** What about the “response of antimicrobial activity to varying calcium concentration” value (Bacillus subtilis [2]; fixed PBA 100 μg/mL (0.82 mM)) of the same compound?
**A.** no change

**Q.** And the “antimicrobial activity when no calcium was added” value (Bacillus subtilis [2]; fixed PBA 100 μg/mL (0.82 mM), no calcium added)?
**A.** equally effective

**Q.** And the “PBA dependence of bacterial growth suppression” value (Bacillus subtilis [2])?
**A.** only able to suppress bacterial growth in the presence of PBA

**Q.** What about the IC50 (HEK293T cells) of the same compound?
**A.** greater than 128 μg/mL

**Q.** And the growth inhibition (B. cereus)?
**A.** inhibited the growth

**Q.** What about the growth inhibition (E. faecalis) of the same compound?
**A.** inhibited the growth

**Q.** And the growth inhibition (Rhodococcus hoagii)?
**A.** inhibited the growth

**Q.** And the growth inhibition (Staphylococcus species)?
**A.** inhibited the growth

**Q.** And the growth inhibition (Streptococcus species)?
**A.** inhibited the growth

**Q.** And the antibacterial activity (Escherichia coli)?
**A.** no activity

**Q.** What about the antibacterial activity (Pseudomonas aeruginosa) of the same compound?
**A.** no activity

**Q.** What about the susceptibility [3] of the same compound?
**A.** similarly susceptible

**Q.** What about the susceptibility [4] of the same compound?
**A.** similarly susceptible

**Q.** And the C10P sequestration [5]?
**A.** sequestered all C10P

**Q.** What does the source list for `CCCCCCCCCCCCCCCC(=O)N[C@@H](CO)C(=O)N[C@H]1CNC(=O)[C@@H]2CCCN2C(=O)[C@H]([C@@H](C)CC)NC(=O)[C@@H]([C@@H](C)O)NC(=O)CNC(=O)[C@H](CCO)NC(=O)CNC(=O)[C@H](CC(=O)O)NC(=O)CNC(=O)[C@H]2CCCCN2C1=O` [B3, Ser-Dap-Pip-Gly-Asp-Gly-Hse-Gly-Thr-Ile-Pro] (Palmitoyl-S[Dap][dPip]GDG[hSer]G[d(aThr)]IP; lactam 2-C)?
**A.** antimicrobial activity (Bacillus subtilis [2]; no calcium supplements): none of them were active; PBA dependence of bacterial growth suppression (Bacillus subtilis [2]): only able to suppress bacterial growth in the presence of PBA

**Q.** For `CCCCCCCCCCCCCCCC(=O)N[C@@H](CCO)C(=O)N[C@H]1CNC(=O)[C@@H]2CCCN2C(=O)[C@H]([C@@H](C)CC)NC(=O)[C@@H]([C@@H](C)O)NC(=O)CNC(=O)[C@H](CO)NC(=O)CNC(=O)[C@H](CC(=O)O)NC(=O)CNC(=O)[C@H]2CCCCN2C1=O` [B4] (Palmitoyl-[hSer][Dap][dPip]GDGSG[d(aThr)]IP; lactam 2-C), which antimicrobial activity (Bacillus subtilis [2]; 5 mM calcium) is on record?
**A.** weak antimicrobial activity

**Q.** And the antimicrobial activity (Bacillus subtilis [2]; no calcium supplements)?
**A.** none of them were active

**Q.** What about the “effect of calcium concentration on MIC” value (Bacillus subtilis [2]; calcium 5 to 0.5 mM, PBA present) of the same compound?
**A.** unaffected

**Q.** With `OB(O)c1ccccc1` [PBA, phenylboronic acid, reference compound] as the compound, how does the IC50 (HEK293T cells; Homo sapiens, HEK-293T) read?
**A.** > 128 µg/mL

**Q.** And the “growth inhibitory zone, boron species” value (Bacillus subtilis [1])?
**A.** effective

**Q.** Which “potency in the presence of PBA” value (Bacillus subtilis [2]; PBA 100 μg/mL (0.82 mM)) does the source give for `CCCCCCCCCCCCCCCC(=O)N[C@@H](CC(=O)O)C(=O)N[C@H]1CNC(=O)[C@@H]2CCCN2C(=O)[C@H]([C@@H](C)CC)NC(=O)[C@@H]([C@@H](C)O)NC(=O)CNC(=O)[C@H](CC(=O)O)NC(=O)CNC(=O)[C@H](CC(=O)O)NC(=O)CNC(=O)[C@H]2CCCCN2C1=O` [S1, reference compound] (Palmitoyl-D[Dap][dPip]GDGDG[d(aThr)]IP; lactam 2-C (inferred)) here?
**A.** dramatically decreased

**Q.** What about the MIC (Bacillus subtilis [2]; [Ca2+]=0.5 mM) of the same compound?
**A.** 16 µg/mL (≈ 12.7 µM)

**Q.** And the MIC (Bacillus subtilis [2]; calcium 5 mM)?
**A.** 4 µg/mL (≈ 3.17 µM)

Source: patent US20250177537A1, “AN ANTIBIOTIC, METHOD OF PREPARATION AND METHOD OF TREATMENT THEREOF” (National Taiwan University, priority 2023, published 2025)
